According to the supplement of paper PMC10307832:

Key:
Assay in all cases: relative viability (nuclei count vs DMSO), 5 days (fraction); higher = more cells survive
Metformin + Bortezomib = compound: CN(C)C(=N)NC(=N)N [Metformin] + CC(C)C[C@H](NC(=O)[C@H](Cc1ccccc1)NC(=O)c1cnccn1)B(O)O [Bortezomib] (partner 0.002 µM)
In short: (§1)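 Lung cancer cell lines in 1536-well plates got either a single drug or a fixed anchor-drug dose together with five library-drug doses (not always all listed) in √10 steps, by pin tool, on the day after seeding. Nuclei were counted after 5 days, and relative viability is the treated-to-vehicle ratio of nuclei counts. Values are medians of duplicate plates.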

Metformin + Dasatinib = compound: CN(C)C(=N)NC(=N)N [Metformin] + Cc1nc(Nc2ncc(C(=O)Nc3c(C)cccc3Cl)s2)cc(N2CCN(CCO)CC2)n1 [Dasatinib] (partner 0.075 µM)
In short: as §1

Apatinib + OSI-027 = compound: N#CC1(c2ccc(NC(=O)c3cccnc3NCc3ccncc3)cc2)CCCC1 [Apatinib] + COc1cccc2cc(-c3nc([C@H]4CC[C@H](C(=O)O)CC4)n4ncnc(N)c34)[nH]c12 [OSI-027] (partner 0.5 µM)
In short: as §1

Metformin + AZD7762 = compound: CN(C)C(=N)NC(=N)N [Metformin] + NC(=O)Nc1cc(-c2cccc(F)c2)sc1C(=O)N[C@H]1CCCNC1 [AZD7762] (partner 0.2 µM)
In short: as §1

Cell Line NCI-H460 has a relative viability (Metformin + Bortezomib; first compound 31.62 µM) of 1.12, a relative viability (Metformin + Bortezomib; first compound 100 µM) of 1.11 and a relative viability (Metformin + Bortezomib; first compound 316.23 µM) of 1.06. It also gave a relative viability (Metformin + Bortezomib; first compound 1000 µM) of 1.19, a relative viability (Metformin + Dasatinib; first compound 10 µM) of 0.402 and a relative viability (Metformin + Dasatinib; first compound 31.62 µM) of 0.546. It also gave a relative viability (Metformin + Dasatinib; first compound 100 µM) of 0.353, a relative viability (Metformin + Dasatinib; first compound 316.23 µM) of 0.43 and a relative viability (Metformin + Dasatinib; first compound 1000 µM) of 0.457. The relative viability (Apatinib + OSI-027; first compound 0.08 µM) was 0.799, the relative viability (Apatinib + OSI-027; first compound 0.253 µM) was 0.746 and the relative viability (Apatinib + OSI-027; first compound 0.8 µM) was 0.491. The relative viability (Apatinib + OSI-027; first compound 2.53 µM) was 0.541, the relative viability (Apatinib + OSI-027; first compound 8 µM) was 0.333 and the relative viability (Metformin + AZD7762; first compound 31.62 µM) was 0.632. For the same cell line, the relative viability (Metformin + AZD7762; first compound 100 µM) was 0.676, the relative viability (Metformin + AZD7762; first compound 316.23 µM) was 0.433 and the relative viability (Metformin + AZD7762; first compound 1000 µM) was 0.553.
